Laboratory results taken from patent publication US8063109B2, “Formulations for parenteral administration of (e)-2, 6-dialkoxystyryl 4-substituted benzylsulfones” (Onconova Therapeutics, Inc., priority 2004, dated 2011).

What was measured:
tumors = assay: Synergy with chemotherapeutic agents; assay type: in vivo; details: often inducing complete regression of tumors
[1] = test system: Patients With Advanced Solid Tumors; assay: Phase I dose escalation study, 2-hour intravenous infusion; assay type: in vivo, human
Description: Safety and efficacy of this formulation, for example, is tested in a Phase I clinical study, at The Johns Hopkins Sidney Kimmel Cancer Center, Baltimore, Md., i.e., “Phase I Dose Escalation Study Of ON 01910.Na By 2-Hour Intravenous Infusion In Patients With Advanced Solid Tumors”. U.S. FDA IND #66,780. The objectives of this study include an identification of a maximum tolerated dose (MTD) and a recommended dose for further clinical studies. A further object of the study is to establish a safety profile, i.e., to observe any toxicities. The patients in this study have advanced solid tumors that have failed conventional treatments, or for which no approved therapy exists. An object of the study is particularly to observe efficacy (anti-cancer effects).
The patients are administered the preferred formulation described herein of the ON 01910.Na drug (properly diluted in intravenous solution) over a two hour period, twice per week, for three weeks. The patients are subsequently observed for […], to constitute a four week treatment cycle.
This study started with a single patient at the first starting dose level of 80 mg per patient. If there is no grade 2 or worse drug-related toxicity (side effects) observed in the first four week cycle, then another patient may be dosed at the next higher dose level. The first patient was dosed at 80 mg per patient on Aug. 3, 2004. […]

[2] = Long term stability of ON 01910.Na 75 mg/mL in 100% PEG-400 for clinical use (HPLC); assay type: physicochemical
Description: ON 01910.Na IV solution was manufactured at a concentration of 75 mg/mL in 100% PEG-400. The finished product consisted of 3 mL of drug product aseptically filled into presterilized 5 mL vials. The manufacturing was in compliance with current Good Manufacturing Practices regulations.
(a) HPLC—Chromatography is performed using a Phenomenex Luna C-18 (2), 5 micron (4.6 mm×250 mm, PN 00G-4252-E0) column at ambient conditions. The mobile phase used is 60%-0.1% trifluoroacetic acid in water; 40% acetonitrile. The flow rate is set at 2.0 ml/min. Injection volume is 50 μL. Detection is accomplished by means of a UV/VIS detector at 230, 254, and 320 nm. Instrument control and data acquisition is facilitated using a Waters Millennium (V 2.15) software package. The external calibration is obtained using ON 01910.Na standard solutions prepared in 50:50 acetonitrile:water. This analytical method was validated.

Structure (SMILES)	synergy with chemotherapeutic agents (tumors)	drug-related toxicity ([1]; 80 to 2080 mg per patient, 2 hour iv infusion, twice per week for three weeks, four week cycle)	dose safely administered ([1]; iv 2 hour infusion, twice per week, for 3 weeks, ten days off)	shelf stability ([2]; 75 mg per ml in 100% PEG-400)	long term stability ([2]; 100% PEG-400 formulation for clinical use)
COc1cc(OC)c(/C=C/S(=O)(=O)Cc2ccc(OC)c(NCC(=O)O)c2)c(OC)c1 [Compound 4, (E)-2,4,6-Trimethoxystyryl-3-(carboxymethylamino)-4-methoxybenzylsulfone]	strong synergy	–	–	–	–
COc1cc(OC)c(/C=C/S(=O)(=O)Cc2ccc(OC)c(NCC(=O)[O-])c2)c(OC)c1.[Na+] [ON 01910.Na, (E)-2,4,6-trimethoxystyryl-3-carboxymethylamino-4-methoxybenzylsulfone]	–	no grade 2 or worse toxicities	≥ 2080 mg	shelf-stable for over one year	extremely stable
